Laboratory results from article PMC9229294, “Pyridazinones and Structurally Related Derivatives with Anti-Inflammatory Activity” (Molecules, 2022).
Where two headings read alike, the source gives them in different places.

Assays:
[1] = tested on: LPS-induced NF-κB activity in THP1-Blue cells; assay: Inhibition of LPS-induced NF-κB transcriptional activity, alkaline phosphatase reporter, THP1-Blue cells; format: cell-based, human; conditions: for IC50: Homo sapiens, LPS-induced NF-κB activity, human THP1-Blue cells, N.A. = no activity at 50 µM; for Observed class for inhibition of NF-κB activity: experimentally observed, Active or N.A.
Protocol: (§1) Our studies included 175 compounds that were previously synthesized and characterized at NEUROFARBA, Pharmaceutical and Nutraceutical Section, University of Florence, Italy. We previously evaluated the FPR1/FPR2 agonist activity of these compounds by evaluating their ability to induce Ca^2+ mobilization in FPR-transfected HL60 cells and human neutrophils. […] All test compounds were dissolved in DMSO at stock concentrations of 10 mM and stored at −20 °C. For primary screening assays (analysis of NF-κB activation, IL-6 production, and cytotoxicity), the following final concentrations of the compounds were used: 3.125, 6.25, 12.5, 25, and 50 µM; the final concentration of DMSO was 1% in all samples.
The activation of NF-κB was measured using an alkaline phosphatase reporter assay in human monocytic THP1-Blue cells stably transfected with a secreted embryonic alkaline phosphatase gene that is under the control of a promoter inducible by the NF-κB. The THP1-Blue cells (2 × 10^5 cells/well) were pretreated with the test compound or DMSO for 30 min, followed by an addition of 250 ng/mL LPS for 24 h. Alkaline phosphatase activity was determined in cell supernatants using a QUANTI-Blue mix (InvivoGen) and measured at 655 nm and compared with positive control samples (LPS).

[2] = Cytotoxicity, CellTiter-Glo, THP1-Blue cells; format: cell-based, human; conditions: human, THP1-Blue cells; N.T. = no cytotoxicity at 50 µM; read-out: Cytotoxicity IC50 in THP1-Blue Cells
Protocol: as §1
(§2) The cytotoxicity was analyzed with a CellTiter-Glo Luminescent Cell Viability Assay Kit from Promega (Madison, WI, USA), according to the manufacturer’s protocol. The luminescent ATP assays are based on a luciferase enzymatic reaction which uses ATP from viable cells to generate photons. For this assay, the cells were incubated with the compounds under investigation for 24 h. After treatment, the cells were equilibrated to room temperature for 30 min, luciferase + luciferin substrate was added, and the samples were analyzed with a Fluoroscan Ascent FL (Thermo Fisher Scientific, Waltham, MA, USA). The IC50 values were calculated by plotting the percentage inhibition against the logarithm of the inhibitor concentration (at least five points).

FPR2 = target: T1, FPR2 (Homo sapiens, UniProt P25090); conditions: FPR2-transfected HL-60 cells, read-out: Ca2+ Mobilization FPR2 EC50 in HL-60 Cells, cited from earlier work
T1 construct: expressed in transfected cells; host or cells: HL-60 cells (FPR2-HL60)
T1 sequence (P25090 1-351): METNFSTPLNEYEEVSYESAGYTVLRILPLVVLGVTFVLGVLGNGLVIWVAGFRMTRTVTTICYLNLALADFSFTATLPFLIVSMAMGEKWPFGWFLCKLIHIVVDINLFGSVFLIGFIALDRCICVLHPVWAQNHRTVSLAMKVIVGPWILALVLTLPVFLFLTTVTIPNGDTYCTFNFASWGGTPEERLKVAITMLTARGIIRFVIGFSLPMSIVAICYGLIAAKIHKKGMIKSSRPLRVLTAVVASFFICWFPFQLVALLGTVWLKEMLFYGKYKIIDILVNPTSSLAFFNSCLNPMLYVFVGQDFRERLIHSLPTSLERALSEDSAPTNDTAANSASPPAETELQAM

[3] = Cytotoxicity, CellTiter-Glo, MonoMac-6 cells; format: cell-based, human; conditions: human, MonoMac-6 cells
Protocol: as §1, §2

FPR1 = target: T2, FPR1 (Homo sapiens, UniProt P21462); conditions: FPR1-transfected HL-60 cells, read-out: Ca2+ Mobilization FPR1 EC50 in HL-60 Cells, cited from earlier work
T2 construct: expressed in transfected cells; host or cells: HL-60 cells (FPR1-HL60)
T2 sequence (P21462 1-350): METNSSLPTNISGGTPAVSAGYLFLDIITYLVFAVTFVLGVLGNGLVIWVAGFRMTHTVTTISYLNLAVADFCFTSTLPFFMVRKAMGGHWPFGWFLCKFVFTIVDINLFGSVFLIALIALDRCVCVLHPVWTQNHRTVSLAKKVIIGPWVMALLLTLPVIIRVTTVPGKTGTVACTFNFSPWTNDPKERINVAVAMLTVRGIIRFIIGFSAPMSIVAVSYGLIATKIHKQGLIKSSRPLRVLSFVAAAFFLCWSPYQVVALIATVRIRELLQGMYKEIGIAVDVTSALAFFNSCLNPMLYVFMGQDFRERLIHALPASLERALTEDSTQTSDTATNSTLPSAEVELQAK

[4] = tested on: LPS-induced IL-6 production in MonoMac-6 cells; assay: Inhibition of LPS-induced IL-6 production in MonoMac-6 cells (ELISA); format: cell-based, human; conditions: for IC50: Homo sapiens; for Inhibition of LPS-induced IL-6 production (in words): MonoMac-6 cells, 250 ng/mL LPS, 24 h
Protocol: as §1
A human IL-6 ELISA kit (BD Biosciences, San Jose, CA, USA) was used to measure IL-6 production. […] The cells were pretreated with the test compound or DMSO for 30 min, followed by addition of 250 ng/mL LPS for 24 h. The IC50 values for IL-6 production were calculated by plotting the percentage inhibition against the logarithm of the inhibitor concentration (at least five points).

[5] = Table 3, as reported previously (see Table 1)
[6] = MONO-MAC-6, read-out: Inhibition of IL-6 Production IC50 in MonoMac-6 Cells

Structure (SMILES)	IC50 [1] [µM]	IC50 [4, 6] [µM]	IC50 ([4]; MONO-MAC-6, 24 h, read-out: IC50, LPS-induced IL-6 production) [µM]	IC50 at 24 h [2] [µM]	EC50 (FPR2; agonist activity from Table 1) [µM]	EC50 (FPR2; [5]) [µM]	IC50 at 24 h [3] [µM]	EC50 (FPR1; agonist activity from Table 1) [µM]	EC50 (FPR1; [5]) [µM]	Observed class for inhibition of NF-κB activity [1]	Inhibition of LPS-induced IL-6 production (in words) [4]	Inhibition of LPS-induced NF-κB activity (in words) ([1]; THP1-Blue cells, 250 ng/mL LPS, 24 h)
CCCn1cc(-c2cccc(OC)c2)c(=O)n(CC(=O)Nc2ccc(Br)cc2)c1=O [Compound 154]	25.6 ± 2.3	2.6 ± 0.3	–	> 50	2.4	–	> 50	3.3	–	Active	–	–
COc1cccc(-n2ccc(=O)n(CC(=O)Nc3ccc(Br)cc3)c2=O)c1 [Compound 150]	21.4 ± 3.5	4 ± 1.2	< 10	> 50	3.6	–	> 50	–	4.3	Active	–	–
CCCCc1c(C)nn(CC(=O)Nc2ccc(Br)cc2)c(=O)c1Cc1cccc(OC)c1 [Compound 80]	15 ± 1.5	33.5 ± 2.4	–	> 50	–	15.7	> 50	> 50	> 50	Active	–	–
COc1cccc(Cc2cc(C)nn(CC(=O)Nc3cccc(Br)c3)c2=O)c1 [Compound 2]	44.5 ± 2.5	30.7 ± 3.6	–	> 50	–	–	> 50	–	–	Active	inhibitors of IL-6 production	–
CCCc1c(C)nn(CC(=O)Nc2ccc(Br)cc2)c(=O)c1Nc1cccc(OC)c1 [Compound 83]	14.6 ± 1.4	15.2 ± 0.2	–	> 50	> 50	> 50	> 50	> 50	> 50	Active	inhibitors of IL-6 production	–
O=C(Cn1c(-c2ccc([N+](=O)[O-])cc2)csc1=O)Nc1ccc(Br)cc1 [Compound 169]	19.2 ± 0.1	3.2 ± 0.4	–	> 50	> 50	> 50	> 50	–	9.1	Active	potent IL-6 inhibitors	–
COc1cccc(-c2cc(C#N)c(=O)n(CC(=O)Nc3ccc(Br)cc3)c2C)c1 [Compound 141]	15.3 ± 4.9	24.5 ± 0.8	–	> 50	–	–	> 50	–	–	Active	–	–
COc1cccc(Cc2cc(-c3ccc(C)cc3)nn(CC(=O)Nc3ccc(F)cc3)c2=O)c1 [Compound 46]	8.2 ± 1.2	> 50	–	> 50	> 50	> 50	> 50	> 50	> 50	–	inhibitors of IL-6 production	active
Cc1cc(Cc2cccc(Cl)c2)c(=O)n(CC(=O)Nc2ccc(I)cc2)n1 [Compound 23]	7.1 ± 2	13.1 ± 0.3	–	> 50	–	–	> 50	–	–	Active	–	–

More lines, main results first:

IC50 [1] [µM]	IC50 [4, 6] [µM]	IC50 ([4]; MONO-MAC-6, 24 h, read-out: IC50, LPS-induced IL-6 production) [µM]	Structure (SMILES)	IC50 at 24 h [2] [µM]	EC50 (FPR2; agonist activity from Table 1) [µM]	EC50 (FPR2; [5]) [µM]	IC50 at 24 h [3] [µM]	EC50 (FPR1; agonist activity from Table 1) [µM]	EC50 (FPR1; [5]) [µM]	Observed class for inhibition of NF-κB activity [1]	Inhibition of LPS-induced IL-6 production (in words) [4]	Inhibition of LPS-induced NF-κB activity (in words) ([1]; THP1-Blue cells, 250 ng/mL LPS, 24 h)
16.6 ± 0.6	7.3 ± 1.2	–	CC[C@@](C)(C(=O)Nc1ccc(Br)cc1)n1nc(C)cc(Cc2cccc(OC)c2)c1=O [Compound 103]	> 50	> 50	> 50	> 50	7	7	–	–	–
22.1 ± 1.6	19 ± 3.1	–	CC[C@](C)(C(=O)Nc1ccc(Br)cc1)n1nc(C)cc(Cc2cccc(OC)c2)c1=O [Compound 102]	> 50	13.7	13.7	> 50	4.5	4.5	–	–	–
22 ± 1.7	8.7 ± 1.6	–	COc1cccc(Cc2cc(C(C)C)nn(CC(=O)Nc3ccc(Br)cc3)c2=O)c1 [Compound 10]	> 50	–	–	> 50	–	–	Active	–	–
12.1 ± 2.4	9.8 ± 1	–	CC[C@@H](C(=O)Nc1ccc(Br)cc1)n1nc(C)cc(Cc2cccc(OC)c2)c1=O [Compound 95]	> 50	22.2	22.2	> 50	13.4	13.4	–	–	–
30.8 ± 6.7	14.3 ± 2	–	CC[C@H](C(=O)Nc1ccc(Br)cc1)n1nc(C)cc(Cc2cccc(OC)c2)c1=O [Compound 94]	> 50	2.3	2.3	> 50	2.8	2.8	–	–	–
